For eight molecules, mutagenic call results are on record in PubChem BioAssay AID1259407 (Chemical Carcinogenesis Research Information System (CCRIS), 2018).

The series concerns CCRIS mutagenicity, Ames/micronucleus/aberration tests. In words: CCRIS mutagenicity studies.
[1] abbreviates: Test System: AMES SALMONELLA TYPHIMURIUM, Strain/Indicator: TA98, Metabolic Activation: NONE, Method: STANDARD PLATE.
The mark [2] stands for this setting: Test System: AMES SALMONELLA TYPHIMURIUM, Strain/Indicator: TA1535, Metabolic Activation: NONE, Method: STANDARD PLATE.
Where [3] appears, read: Test System: AMES SALMONELLA TYPHIMURIUM, Strain/Indicator: TA98, Metabolic Activation: NONE, Method: PREINCUBATION
[4] abbreviates: Test System: AMES SALMONELLA TYPHIMURIUM, Strain/Indicator: TA98, Metabolic Activation: RAT, LIVER, S-9, AROCLOR 1254, Method: PREINCUBATION
Where [5] appears, read: Test System: AMES SALMONELLA TYPHIMURIUM, Strain/Indicator: TA100, Metabolic Activation: NONE, Method: STANDARD PLATE.
Where [6] appears, read: Test System: AMES SALMONELLA TYPHIMURIUM, Strain/Indicator: TA100, Metabolic Activation: RAT, LIVER, S-9, AROCLOR 1254, Method: STANDARD PLATE.
The mark [7] stands for this setting: Test System: AMES SALMONELLA TYPHIMURIUM, Strain/Indicator: TA100, Metabolic Activation: NONE, Method: PREINCUBATION

Structures are written as SMILES. Activity calls are given as the source filed them. The rule behind the calls is not given here.

On to `Nc1cccc2c(N)cccc12`, for which the mutagenic call runs as follows: under setting [1], “inactive; negative”; (Test System: AMES SALMONELLA TYPHIMURIUM, Strain/Indicator: TA98, Metabolic Activation: RAT, LIVER, S-9, Method: STANDARD PLATE) “inactive; negative”; (Test System: AMES SALMONELLA TYPHIMURIUM, Strain/Indicator: TA1535, Metabolic Activation: HAMSTER, LIVER, S-9, AROCLOR 1254, Method: STANDARD PLATE) “inactive; negative”; (Test System: AMES SALMONELLA TYPHIMURIUM, Strain/Indicator: TA1535, Metabolic Activation: HAMSTER, LIVER, S-9, Method: STANDARD PLATE) “inactive; negative”; (Test System: AMES SALMONELLA TYPHIMURIUM, Strain/Indicator: TA1535, Metabolic Activation: MOUSE, LIVER, S-9, AROCLOR 1254, Method: STANDARD PLATE) “inactive; negative”; (Test System: AMES SALMONELLA TYPHIMURIUM, Strain/Indicator: TA1535, Metabolic Activation: MOUSE, LIVER, S-9, Method: STANDARD PLATE) “inactive; negative”. Also, the mutagenic call is, setting by setting: under setting [2], “inactive; negative”; (Test System: AMES SALMONELLA TYPHIMURIUM, Strain/Indicator: TA1535, Metabolic Activation: RAT, LIVER, S-9, AROCLOR 1254, Method: STANDARD PLATE) “inactive; negative”; (Test System: AMES SALMONELLA TYPHIMURIUM, Strain/Indicator: TA1535, Metabolic Activation: RAT, LIVER, S-9, Method: STANDARD PLATE) “inactive; negative”; (Test System: AMES SALMONELLA TYPHIMURIUM, Strain/Indicator: TA1537, Metabolic Activation: HAMSTER, LIVER, S-9, AROCLOR 1254, Method: STANDARD PLATE) “active; positive”; (Test System: AMES SALMONELLA TYPHIMURIUM, Strain/Indicator: TA1537, Metabolic Activation: MOUSE, LIVER, S-9, Method: STANDARD PLATE) “inactive; negative”; (Test System: AMES SALMONELLA TYPHIMURIUM, Strain/Indicator: TA1537, Metabolic Activation: RAT, LIVER, S-9, Method: STANDARD PLATE) “inactive; negative”. The mutagenic call reads like this: (Test System: AMES SALMONELLA TYPHIMURIUM, Strain/Indicator: TA1538, Metabolic Activation: MOUSE, LIVER, S-9, AROCLOR 1254, Method: STANDARD PLATE) “inactive; negative”; (Test System: AMES SALMONELLA TYPHIMURIUM, Strain/Indicator: TA1538, Metabolic Activation: MOUSE, LIVER, S-9, Method: STANDARD PLATE) “inactive; negative”; (Test System: AMES SALMONELLA TYPHIMURIUM, Strain/Indicator: TA1538, Metabolic Activation: NONE, Method: STANDARD PLATE) “inactive; negative”; (Test System: AMES SALMONELLA TYPHIMURIUM, Strain/Indicator: TA1538, Metabolic Activation: RAT, LIVER, S-9, Method: STANDARD PLATE) “inactive; negative”; (Test System: E. COLI, Strain/Indicator: WP2 UVRA, Metabolic Activation: HAMSTER, LIVER, S-9, AROCLOR 1254, Method: STANDARD PLATE) “inactive; negative”; (Test System: E. COLI, Strain/Indicator: WP2 UVRA, Metabolic Activation: HAMSTER, LIVER, S-9, Method: STANDARD PLATE) “inactive; negative”. For the same molecule, the mutagenic call is “inactive; negative” (Test System: E. COLI, Strain/Indicator: WP2 UVRA, Metabolic Activation: MOUSE, LIVER, S-9, AROCLOR 1254, Method: STANDARD PLATE); “inactive; negative” (Test System: E. COLI, Strain/Indicator: WP2 UVRA, Metabolic Activation: MOUSE, LIVER, S-9, Method: STANDARD PLATE); “inactive; negative” (Test System: E. COLI, Strain/Indicator: WP2 UVRA, Metabolic Activation: NONE, Method: STANDARD PLATE); “inactive; negative” (Test System: E. COLI, Strain/Indicator: WP2 UVRA, Metabolic Activation: RAT, LIVER, S-9, AROCLOR 1254, Method: STANDARD PLATE); “inactive; negative” (Test System: E. COLI, Strain/Indicator: WP2 UVRA, Metabolic Activation: RAT, LIVER, S-9, Method: STANDARD PLATE).
`Cc1cnc2ccc3c(nc(N[C@@H]4O[C@H](C(=O)O)[C@@H](O)[C@H](O)[C@H]4O)n3C)c2n1`: the mutagenic call is “inactive; negative” under setting [3] and “inactive; negative” under setting [4].
Consider `Cc1ccc2c([N+](=O)[O-])cccc2c1`, for which the mutagenic call under setting [3] is “active; positive”.
Take `c1ccc(Cc2ccccc2OCC2CO2)cc1` (centres undefined): the mutagenic call by setting is: under setting [5], “active; positive”; under setting [2], “active; positive”.
Regarding `O=C(OCCBr)[C@@H](O)[C@H](O)C(=O)OCCBr`, the mutagenic call is, setting by setting: under setting [5], “active; positive”; under setting [6], “active; positive”.
Turning to `NNc1nncc2cnccc12`, the mutagenic call runs as follows: under setting [3], “active; positive”; (Test System: AMES SALMONELLA TYPHIMURIUM, Strain/Indicator: TA98, Metabolic Activation: RAT, LIVER, S-9, PCB, Method: PREINCUBATION) “active; positive”; under setting [7], “active; positive”; (Test System: AMES SALMONELLA TYPHIMURIUM, Strain/Indicator: TA100, Metabolic Activation: RAT, LIVER, S-9, PCB, Method: PREINCUBATION) “active; positive”.
Consider `O=C(O)/C=C/c1ccc([N+](=O)[O-])cc1`, for which the mutagenic call by setting is: (Test System: AMES SALMONELLA TYPHIMURIUM, Strain/Indicator: TA98(1,8-DNP6), Metabolic Activation: NONE, Method: PREINCUBATION) “active; positive”; (Test System: AMES SALMONELLA TYPHIMURIUM, Strain/Indicator: TA98(1,8-DNP6), Metabolic Activation: RAT, LIVER, S-9, AROCLOR 1254, Method: PREINCUBATION) “active; positive”; (Test System: AMES SALMONELLA TYPHIMURIUM, Strain/Indicator: TA98(NR), Metabolic Activation: NONE, Method: PREINCUBATION) “active; positive”; (Test System: AMES SALMONELLA TYPHIMURIUM, Strain/Indicator: TA98(NR), Metabolic Activation: RAT, LIVER, S-9, AROCLOR 1254, Method: PREINCUBATION) “active; positive”; under setting [3], “active; positive”; under setting [1], “active; positive”. Further, the mutagenic call reads like this: under setting [4], “active; positive”; (Test System: AMES SALMONELLA TYPHIMURIUM, Strain/Indicator: TA98, Metabolic Activation: RAT, LIVER, S-9, AROCLOR 1254, Method: STANDARD PLATE) “active; positive”; (Test System: AMES SALMONELLA TYPHIMURIUM, Strain/Indicator: TA100(1,8-DNP6), Metabolic Activation: NONE, Method: PREINCUBATION) “active; positive”; (Test System: AMES SALMONELLA TYPHIMURIUM, Strain/Indicator: TA100(1,8-DNP6), Metabolic Activation: RAT, LIVER, S-9, AROCLOR 1254, Method: PREINCUBATION) “active; positive”; (Test System: AMES SALMONELLA TYPHIMURIUM, Strain/Indicator: TA100(NR), Metabolic Activation: NONE, Method: PREINCUBATION) “active; positive”; (Test System: AMES SALMONELLA TYPHIMURIUM, Strain/Indicator: TA100(NR), Metabolic Activation: RAT, LIVER, S-9, AROCLOR 1254, Method: PREINCUBATION) “active; positive”. For the same molecule, the mutagenic call runs as follows: under setting [7], “active; positive”; under setting [5], “active; positive”; (Test System: AMES SALMONELLA TYPHIMURIUM, Strain/Indicator: TA100, Metabolic Activation: RAT, LIVER, S-9, AROCLOR 1254, Method: PREINCUBATION) “active; positive”; under setting [6], “active; positive”; (Test System: AMES SALMONELLA TYPHIMURIUM, Strain/Indicator: TA1535, Metabolic Activation: NONE, Method: PREINCUBATION) “active; positive”; (Test System: AMES SALMONELLA TYPHIMURIUM, Strain/Indicator: TA1537, Metabolic Activation: NONE, Method: PREINCUBATION) “active; positive”. For the setting “Test System: AMES SALMONELLA TYPHIMURIUM, Strain/Indicator: TA1538, Metabolic Activation: NONE, Method: PREINCUBATION”, the mutagenic call is “active; positive”.
Consider `CSCCCCC(=NOS(=O)(=O)O)S[C@@H]1O[C@H](CO)[C@@H](O)[C@H](O)[C@H]1O`, for which the mutagenic call (End Point: IN VITRO MICRONUCLEUS, Test System: HUMAN T-LYMPHOCYTES, Metabolic Activation: NONE) is “inactive; negative”.
